Results taken from patent US20240307484A1 (priority 2023, published 2024).
Read-outs that look alike come from different tables or passages of the source. Numbered stars: 1 amine (or outer) side, 2 acyl side, 3 side chain; on linkers, the order of the positions; unused ones are H or OH. Bridge positions count the residues as written; N and C are the ends. Square brackets hold non-standard residues; d marks the D form. Peptide text beside a SMILES is read from it. I, II: the chains in the order shown. Actinocin(9to1) = Cc1c2oc3c(C)ccc(C(=O)[*:1])c3nc-2c(C(=O)[*:2])c(N)c1=O; NMeV = CN[C@H](C(=O)O)C(C)C; Sar = CNCC(=O)O

Key:
4T1 cells = experiment: Cytotoxicity / synergistic cytotoxic effect test in 4T1 cells; type: cell-based, mouse
Source text: (§1) The cell lines used in the following examples, namely the MDA-MB-231 (human triple-negative breast cancer) cell line, the 4T1 (mouse triple-negative breast cancer) cell line, and the MCF-7 (breast cancer) cell line, are easily obtainable by a person with common knowledge in the art and therefore need not be deposited. The 4T1 cell line is frequently used as a research model for the metastasis of breast cancer and a model for the selection of clinical drugs for breast cancer.
(§2) MDA-MB-231 cells, 4T1 cells, and MCF-7 cells were treated with actinomycin D and doxorubicin in different ratios for 48 hours, before combination indices (CI) were calculated based on cytotoxicity.

MCF-7 cells = experiment: Cytotoxicity / synergistic cytotoxic effect test in MCF-7 cells; type: cell-based
Source text: as §1, §2

MDA-MB-231 cells = experiment: Cytotoxicity / synergistic cytotoxic effect test in MDA-MB-231 cells; type: cell-based, human
Source text: as §1, §2

[1] = system: 4T1 breast cancer mouse models; experiment: Metastasis test in 4T1 breast cancer mouse models; type: in vivo; conditions: 4T1 mouse model; five weeks, treated every 7 days; cyclophosphamide 5 mg/kg, doxorubicin 0.5 mg/kg, actinomycin D 20 μg/kg
Procedure: 4T1 breast cancer mouse models were created based on common knowledge in the art. The test lasted for five weeks, and the mice in each of the following groups were treated on the 0th, 7th, 14th, 21st, 28th, and 35th day of the test: • Group 1: Without any treatment; • Group 2: With cyclophosphamide administered at a dose of 5 mg/kg: • Group 3: With both cyclophosphamide and doxorubicin administered, the dose of cyclophosphamide being 5 mg/kg, and the dose of doxorubicin being 0.5 mg/kg (equivalent to a clinical dose of 20 mg/m^2 for humans); • Group 4: With actinomycin D administered at a dose of 20 μg/kg (equivalent to a clinical dose of […] for humans); • Group 5: With doxorubicin administered at a dose of 0.5 mg/kg: • Group 6: With both actinomycin D (20 μg/kg) and doxorubicin (0.5 mg/kg) administered; and • Group 7: With both actinomycin D (10 μg/kg) and doxorubicin (0.25 mg/kg) administered, the doses being 0.5 times as high as those for group 6.
Once the test was completed, the mice in each group were sacrificed, and the numbers of breast tumors that had metastasized to the lungs and to the liver (i.e., lung metastatic nodules and liver metastatic nodules) of each group of mice were counted. In addition, lungs and livers were collected from the mice, sectioned, and then stained with hematoxylin and eosin (H&E) stain, as shown in FIG. 20.

[2] = Table 1, 4T1 cells, read-out: IC50 of various chemotherapy drugs against different cancer cells
[3] = Table 1, MCF-7 cells, read-out: IC50 of various chemotherapy drugs against different cancer cells
[4] = Table 1, MDA-MB-231 cells, read-out: IC50 of various chemotherapy drugs against different cancer cells

Compound | IC50 (4T1 cells; [2]) | IC50 (MCF-7 cells; [3]) | IC50 (MDA-MB-231 cells; [4]) | number of liver metastatic nodules [1] | number of lung metastatic nodules [1] | other results
O=c1[nH]cc(F)c(=O)[nH]1 [5FU] | 5900 ± 300 nM | 38300 ± 5000 nM | > 100000 nM |  |  | 
Cc1c2oc3c(C)ccc(C(=O)N[C@@H]4C(=O)N[C@H](C(C)C)C(=O)N5CCC[C@H]5C(=O)N(C)CC(=O)N(C)[C@@H](C(C)C)C(=O)O[C@@H]4C)c3nc-2c(C(=O)N[C@@H]2C(=O)N[C@H](C(C)C)C(=O)N3CCC[C@H]3C(=O)N(C)CC(=O)N(C)[C@@H](C(C)C)C(=O)O[C@@H]2C)c(N)c1=O [Actinomycin D, actinomycin D] (I: T[dV]P[Sar][NMeV] / II: T[dV]P[Sar][NMeV]; ester I:1-I:C, II:1-II:C; linker I:N-II:N via Actinocin(9to1)) |  |  |  | increased in comparison with those of group-3 mice | increased in comparison with those of group-3 mice | IC50 (4T1 cells; Mus musculus, 4T1, 48 h): 2.6 nM; IC50 (4T1 cells; Mus musculus, 4T1, read-out: IC50 of various chemotherapy drugs against different cancer cells): 500 ± 40 nM; IC50 (MCF-7 cells; Homo sapiens, MCF7, 48 h): 3.7 nM; IC50 (MCF-7 cells; Homo sapiens, MCF7, read-out: IC50 of various chemotherapy drugs against different cancer cells): 300 ± 60 nM; IC50 (MDA-MB-231 cells; Homo sapiens, MDA-MB-231, 48 h): 3.3 nM; IC50 (MDA-MB-231 cells; Homo sapiens, MDA-MB-231, read-out: IC50 of various chemotherapy drugs against different cancer cells): 1100 ± 190 nM
N.N.[Cl][Pt][Cl] [Cisplatin, cisplatin] | 3300 ± 1200 nM | 19100 ± 2200 nM | 37200 ± 5100 nM |  |  | 
COc1cccc2c1C(=O)c1c(O)c3c(c(O)c1C2=O)C[C@@](O)(C(=O)CO)C[C@@H]3O[C@H]1C[C@H](N)[C@H](O)[C@H](C)O1 [Doxorubicin, doxorubicin] |  |  |  | significantly less liver metastatic nodules than group-1 mice | approximately the same number of lung metastatic nodules as group-3 mice | IC50 (4T1 cells; Mus musculus, Table 1, 4T1 cells, read-out: IC50 of various chemotherapy drugs against different cancer cells): 2.8 ± 1.1 nM; IC50 (4T1 cells; Mus musculus, Table 2, single drug, 4T1 cells, 48 hours, read-out: IC50): 579 nM; IC50 (MCF-7 cells; Homo sapiens, MCF7, Table 1, MCF-7 cells, read-out: IC50 of various chemotherapy drugs against different cancer cells): 4.5 ± 1.7 nM; IC50 (MCF-7 cells; Homo sapiens, MCF7, Table 2, single drug, MCF-7 cells, 48 hours, read-out: IC50): 323 nM; IC50 (MDA-MB-231 cells; Homo sapiens, Table 1, MDA-MB-231 cells, read-out: IC50 of various chemotherapy drugs against different cancer cells): 6.5 ± 0.9 nM; IC50 (MDA-MB-231 cells; Homo sapiens, Table 2, single drug, MDA-MB-231 cells, 48 hours, read-out: IC50): 1270 nM
O=P1(N(CCCl)CCCl)NCCCO1 (stereo not drawn) [cyclophosphamide] |  |  |  | reduced only slightly | reduced only slightly | 
